According to patent US20210299038A1, “METHOD TO PREVENT AND TREAT OCULAR CATARACT BY CALCIUM CHANNEL BLOCKERS, ANGIOTENSIN CONVERTING ENZYME INHIBITORS, AND ANGIOTENSIN RECEPTOR BLOCKERS” (priority 2018, published 2021):

Tests used:
ocular cataract [1] = assay: Prevention of recurrence of ocular cataract in a successfully treated patient, one eye treated, other eye untreated; assay type: in vivo, human; settings: untreated eye shows recurrence
Description: A composition comprising the calcium channel blocker nifedipine is directly applied to the vitreous surface of one eye while the other eye is left untreated. […] A composition comprising the ACE inhibitor enalapril is directly applied to the vitreous surface of one eye while the other eye is left untreated. […] A composition comprising the angiotensin receptor blocker losartan is directly applied to the vitreous surface of one eye while the other eye is left untreated. […] A composition comprising the calcium channel blocker nifedipine is applied to the eye by intravitreal or intraocular injection while the other eye is left untreated. […] A composition comprising the ACE inhibitor enalapril is applied to the eye by intravitreal or intraocular injection while the other eye is left untreated. […] A composition comprising the angiotensin receptor blocker losartan is applied to the eye by intravitreal or intraocular injection while the other eye is left untreated.

ocular cataract [2] = assay: Treatment of a patient diagnosed with ocular cataract, one eye treated, other eye untreated; assay type: in vivo, human
Description: A patient is diagnosed with ocular cataract. A composition comprising the calcium channel blocker nifedipine is directly applied to the vitreous surface of one eye while the other eye is left untreated. […] A patient is diagnosed with ocular cataract. A composition comprising the ACE inhibitor enalapril is directly applied to the vitreous surface of one eye while the other eye is left untreated. […] A patient is diagnosed with ocular cataract. A composition comprising the angiotensin receptor blocker losartan is directly applied to the vitreous surface of one eye while the other eye is left untreated. […] A patient is diagnosed with ocular cataract. A composition comprising the calcium channel blocker nifedipine is applied to the eye by intravitreal or intraocular injection while the other eye is left untreated. […] A patient is diagnosed with ocular cataract. A composition comprising the ACE inhibitor enalapril is applied to the eye by intravitreal or intraocular injection while the other eye is left untreated. […] A patient is diagnosed with ocular cataract. A composition comprising the angiotensin receptor blocker losartan is applied to the eye by intravitreal or intraocular injection while the other eye is left untreated.

cataract opacities = settings: 3119 participants aged 55 to 80; after 10 years of supplementation; cited from earlier work
[3] = composition applied by intravitreal or intraocular injection
[4] = composition directly applied to the vitreous surface of one eye

Structure (SMILES)	development (recurrence) of ocular cataract in treated eye (ocular cataract [1]; [3])	development (recurrence) of ocular cataract in treated eye (ocular cataract [1]; [4])	symptoms of ocular cataract in treated eye versus untreated eye (ocular cataract [2]; [3])	symptoms of ocular cataract in treated eye versus untreated eye (ocular cataract [2]; [4])	nuclear cataract score opacities (cataract opacities)
CCOC(=O)[C@H](CCc1ccccc1)N[C@@H](C)C(=O)N1CCC[C@H]1C(=O)O [enalapril]	not develop ocular cataract	not develop ocular cataract	reduced symptoms of ocular cataract	reduced symptoms of ocular cataract	
CC1=C[C@H](O)CC(C)(C)[C@H]1/C=C/C(C)=C/C=C/C(C)=C/C=C/C=C(C)/C=C/C=C(C)/C=C/C1=C(C)C[C@@H](O)CC1(C)C [lutein]					No reduction
CC1=C(/C=C/C(C)=C/C=C/C(C)=C/C=C/C=C(C)/C=C/C=C(C)/C=C/C2=C(C)C[C@@H](O)CC2(C)C)C(C)(C)C[C@H](O)C1 [zeaxanthin]					No reduction
CCCCc1nc(Cl)c(CO)n1Cc1ccc(-c2ccccc2-c2nn[nH]n2)cc1 [losartan]	not develop ocular cataract	not develop ocular cataract	reduced symptoms of ocular cataract	reduced symptoms of ocular cataract	
